Test results: publication PMC6556873, “Rapid Covalent-Probe Discovery by Electrophile-Fragment Screening” (Journal of the American Chemical Society, 2019)
Read-outs that look alike come from different tables or passages of the source.

How the values were obtained:
[1] = biological target: T1, NUDT7 (Homo sapiens, UniProt P0C024); experiment: RapidFire MS acetyl-CoA hydrolysis, kobs vs [inhibitor]; format: biochemical
T1 construct: residues 14-235, E. coli, pNIC28-Bsa4, N-terminal His6 tag removed by TEV, construct 26672 Da
T1 sequence (P0C024 14-235): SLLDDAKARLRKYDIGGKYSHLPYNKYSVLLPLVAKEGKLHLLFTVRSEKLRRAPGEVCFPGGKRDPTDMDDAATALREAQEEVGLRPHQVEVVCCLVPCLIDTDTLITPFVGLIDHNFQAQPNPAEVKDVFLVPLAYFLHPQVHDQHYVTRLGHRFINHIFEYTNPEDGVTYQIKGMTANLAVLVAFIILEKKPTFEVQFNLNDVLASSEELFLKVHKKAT

[2] = biological target: T1, NUDT7; experiment: as above; format: biochemical; conditions: covalent, inactivation constant KI from kinact/KI fit, 5 mM MgCl2, pH 7.5
[3] = biological target: T1, NUDT7; experiment: RapidFire MS acetyl-CoA hydrolysis assay; format: biochemical
[4] = biological target: T2, BSA (Bos taurus, UniProt P02769); parameters: Intact protein LC/MS covalent labelling, fragments in pools of five, 200 uM each, 4 °C; conditions: 24 h, 4 °C, pool of five; 200 µM; covalent
T2 construct: gene ALB
T2 sequence (P02769 whole entry, the tested form may be a part): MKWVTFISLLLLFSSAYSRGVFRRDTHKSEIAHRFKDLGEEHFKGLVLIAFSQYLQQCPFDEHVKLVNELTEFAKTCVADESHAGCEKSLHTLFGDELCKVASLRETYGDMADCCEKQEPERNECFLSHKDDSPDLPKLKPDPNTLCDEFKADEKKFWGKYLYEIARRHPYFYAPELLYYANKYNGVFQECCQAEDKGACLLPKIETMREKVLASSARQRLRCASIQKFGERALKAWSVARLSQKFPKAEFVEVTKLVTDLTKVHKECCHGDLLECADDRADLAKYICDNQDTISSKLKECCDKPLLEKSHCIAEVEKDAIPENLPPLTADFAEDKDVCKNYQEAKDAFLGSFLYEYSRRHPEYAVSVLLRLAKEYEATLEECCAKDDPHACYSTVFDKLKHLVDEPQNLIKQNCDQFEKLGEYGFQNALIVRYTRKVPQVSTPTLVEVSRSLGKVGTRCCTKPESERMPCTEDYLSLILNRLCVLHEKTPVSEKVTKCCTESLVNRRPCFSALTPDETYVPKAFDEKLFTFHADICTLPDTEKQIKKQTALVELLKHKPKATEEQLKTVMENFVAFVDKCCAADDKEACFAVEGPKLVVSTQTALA

[5] = biological target: T1, NUDT7; parameters: Intact protein LC/MS covalent labelling, fragments in pools of five, 200 uM each, 4 °C; conditions: 24 h, 4 °C, pool of five; 200 µM; covalent
[6] = biological target: T3, PCAF (Homo sapiens, UniProt Q92831); parameters: Intact protein LC/MS covalent labelling, fragments in pools of five, 200 uM each, 4 °C; conditions: 24 h, 4 °C, pool of five; 200 µM; covalent
T3 construct: gene KAT2B
T3 sequence (Q92831 whole entry, the tested form may be a part): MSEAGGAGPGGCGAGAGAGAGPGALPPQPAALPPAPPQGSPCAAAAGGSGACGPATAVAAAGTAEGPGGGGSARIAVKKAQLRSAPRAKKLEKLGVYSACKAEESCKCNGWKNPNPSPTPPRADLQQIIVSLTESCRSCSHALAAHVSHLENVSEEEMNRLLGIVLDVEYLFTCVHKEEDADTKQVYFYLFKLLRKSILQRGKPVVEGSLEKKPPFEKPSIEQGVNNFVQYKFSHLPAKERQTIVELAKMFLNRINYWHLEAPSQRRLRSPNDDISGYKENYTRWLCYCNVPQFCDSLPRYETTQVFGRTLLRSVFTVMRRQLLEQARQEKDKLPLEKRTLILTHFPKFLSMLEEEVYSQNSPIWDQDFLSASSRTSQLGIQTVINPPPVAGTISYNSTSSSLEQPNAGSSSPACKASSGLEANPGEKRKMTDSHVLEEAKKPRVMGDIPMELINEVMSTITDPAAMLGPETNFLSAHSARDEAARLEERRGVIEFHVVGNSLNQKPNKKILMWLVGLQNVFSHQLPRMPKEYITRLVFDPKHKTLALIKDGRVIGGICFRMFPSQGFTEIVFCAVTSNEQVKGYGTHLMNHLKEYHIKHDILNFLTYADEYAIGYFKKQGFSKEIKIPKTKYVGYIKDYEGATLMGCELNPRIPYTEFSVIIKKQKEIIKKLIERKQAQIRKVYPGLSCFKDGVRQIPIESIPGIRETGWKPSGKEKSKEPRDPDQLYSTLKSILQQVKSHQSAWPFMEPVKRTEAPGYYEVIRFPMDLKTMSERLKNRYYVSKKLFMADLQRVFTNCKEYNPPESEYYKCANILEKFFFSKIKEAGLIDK

[7] = biological target: T4, OTUB2 (OTUB2A) (Homo sapiens, UniProt Q96DC9); parameters: Intact protein LC/MS covalent labelling, fragments in pools of five, 200 uM each, 4 °C; conditions: 24 h, 4 °C, pool of five; 200 µM; covalent
T4 construct: full length residues 1-234, E. coli BL21(DE3)-R3, His tag removed by TEV, construct 27312 Da
T4 sequence (Q96DC9 1-234): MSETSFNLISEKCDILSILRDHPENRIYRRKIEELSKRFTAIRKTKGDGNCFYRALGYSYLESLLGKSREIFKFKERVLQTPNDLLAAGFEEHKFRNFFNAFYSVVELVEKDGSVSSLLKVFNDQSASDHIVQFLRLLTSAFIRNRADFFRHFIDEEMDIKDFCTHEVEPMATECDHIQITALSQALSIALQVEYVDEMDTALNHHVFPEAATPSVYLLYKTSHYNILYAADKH

[8] = biological target: T1, NUDT7; experiment: X-ray cocrystal structure; format: binding; conditions: covalent; C73
[9] = in vitro; parameters: species or system HB2, CCD841; conditions: human, hek293 cells
[10] = in vitro; parameters: species or system HB2, HEK293; conditions: human, ccd841 cells
[11] = in vitro; parameters: species or system CCD841, HEK293; conditions: human, hb2 cells, read-out: HB-2 Cells Viability (%)
[12] = biological target: T1, NUDT7; experiment: X-ray crystal structure, soak; conditions: noncovalent; putative substrate binding region
[13] = biological target: T4, OTUB2 (OTUB2A); experiment: intact protein LC/MS labeling; format: binding; conditions: covalent; 24 h, 4 °C
[14] = biological target: T4, OTUB2 (OTUB2A); experiment: intact protein LC/MS labeling; format: binding; conditions: covalent; 24 h, 4 °C; remark: listed apart in the source
[15] = biological target: T1, NUDT7; experiment: intact protein LC/MS labeling; format: binding; conditions: covalent; 24 h, 4 °C, 2 μM protein, pools of five, pH 7.5
[16] = biological target: T5, NNMT (hNNMT) (Homo sapiens, UniProt P40261); parameters: Intact protein LC/MS covalent labelling, fragments in pools of five, 200 uM each, 4 °C; conditions: 24 h, 4 °C, pool of five; 200 µM; covalent
T5 construct: wild type, N-terminal His6 tag kept (no cleavage described), E. coli, construct 31248 Da
T5 sequence (P40261 1-264): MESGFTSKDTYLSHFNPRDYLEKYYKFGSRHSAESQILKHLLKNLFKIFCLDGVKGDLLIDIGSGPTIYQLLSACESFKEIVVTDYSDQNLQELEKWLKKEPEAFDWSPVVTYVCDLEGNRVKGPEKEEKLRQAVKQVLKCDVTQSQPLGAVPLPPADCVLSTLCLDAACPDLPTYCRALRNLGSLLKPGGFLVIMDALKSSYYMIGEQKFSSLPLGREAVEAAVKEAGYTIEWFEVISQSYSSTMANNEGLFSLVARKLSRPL

[17] = biological target: T6, USP8 (Homo sapiens, UniProt P40818); experiment: intact protein LC/MS labeling; format: binding; conditions: covalent; promiscuous compound; 24 h, 4 °C, 2 μM protein, pools of five, pH 7.5
T6 construct: residues 705-1081, E. coli, produced as NUDT7 (His tag removed by TEV), construct 44429 Da
T6 sequence (P40818 705-1081): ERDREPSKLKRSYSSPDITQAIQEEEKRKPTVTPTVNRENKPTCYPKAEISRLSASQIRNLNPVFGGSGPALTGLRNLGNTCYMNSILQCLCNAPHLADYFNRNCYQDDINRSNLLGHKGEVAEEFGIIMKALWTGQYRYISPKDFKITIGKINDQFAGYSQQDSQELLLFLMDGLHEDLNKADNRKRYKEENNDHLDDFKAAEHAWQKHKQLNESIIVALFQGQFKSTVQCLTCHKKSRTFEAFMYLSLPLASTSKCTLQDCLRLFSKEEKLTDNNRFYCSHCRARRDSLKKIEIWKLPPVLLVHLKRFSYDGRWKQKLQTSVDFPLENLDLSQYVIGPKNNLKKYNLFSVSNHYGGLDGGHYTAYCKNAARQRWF

[18] = biological target: T5, NNMT (hNNMT); experiment: intact protein LC/MS labeling; format: binding; conditions: covalent; promiscuous compound; 24 h, 4 °C, 2 μM protein, pools of five, pH 7.5
[19] = biological target: T7, K-Ras^G12C (Homo sapiens, UniProt P01116, G12C, species not given); experiment: intact protein LC/MS labeling; format: binding; conditions: covalent; 24 h, 4 °C, 2 μM protein, pools of five, pH 8.0
T7 construct: gene KRAS; residues 1-169, recombinant, construct 19245 Da
T7 sequence (P01116 1-169 G12C): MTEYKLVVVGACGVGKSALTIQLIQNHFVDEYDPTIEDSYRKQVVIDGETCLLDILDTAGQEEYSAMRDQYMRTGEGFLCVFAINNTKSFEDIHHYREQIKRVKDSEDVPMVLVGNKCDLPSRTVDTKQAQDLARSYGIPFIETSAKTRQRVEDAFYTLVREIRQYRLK

Compound | kinact/KI [1] | KI (inactivation) [2] | IC50 [3] | BSA [4] | NUDT7 [5] | PCAF [6] | OTUB2 [7] | % labeling at 100 μM [13] | % labeling at 5 μM [14] | % labeling at 200 μM [15] | NNMT [16] | % labeling at 200 μM [17] | % labeling at 200 μM [18] | % labeling at 200 μM [19] | X-ray cocrystal structure [8] | viability at 48 h, 10 µM [9] | viability at 48 h, 10 µM [10] | viability at 48 h, 10 µM [11] | X-ray crystal structure, soak [12]
O=C(Cc1cccc(C2CCCN2C(=O)CCl)c1)Nc1cccc(Cl)c1 (racemic) [NUDT7-COV-1] | 757 M⁻¹ s⁻¹ | 13.2 µM | 1.1 µM |  |  |  |  |  |  |  |  |  |  |  |  |  |  |  | 
COc1cccc(C2CCCN2C(=O)CCl)c1 (racemic) [PCM-0102716] |  |  |  | 0 | 0.68 | 0 | 0.09 |  |  |  |  |  |  |  | cocrystal structures of compounds PCM-0102951, PCM-0102558, and PCM-0102716 bound to NUDT7 | 3.6% | 34.4% | 7.6% | 
O=C(Cc1cccc(O)c1)Nc1cccc(Cl)c1 [NUDT7-REV-1] |  |  |  |  |  |  |  |  |  |  |  |  |  |  |  |  |  |  | soaked them into NUDT7 crystals, which yielded a structure in complex with compound NUDT7-REV-1
O=C(CCl)NNC(=O)C(c1ccccc1)c1ccccc1 [OTUB2-COV-17] |  |  |  |  |  |  |  | 100% |  |  |  |  |  |  |  |  |  |  | 
O=C(CCl)NNC(=O)C1CC1c1ccc(Cl)cc1 (stereo not drawn) [OTUB2-COV-22] |  |  |  |  |  |  |  |  | 55% |  |  |  |  |  |  |  |  |  | 
O=C(CCl)N1CCCC1c1ccc2c(c1)OCCO2 (stereo not drawn) [PCM-0102298] |  |  |  | 0 | 1 | 0 | 0 |  |  | 100% |  |  |  |  |  | 4.5% | 21.6% | 5.3% | 
O=C(CCl)Nc1nc(-c2cc(F)ccc2F)cs1 [PCM-0102496] |  |  |  | 0 | 0.53 | 0 | 0 |  |  |  | 1 | > 50% | > 50% |  |  | 2.2% | 35.7% | 3.9% | 
O=C(CCl)N1CCCC1c1ccc2c(c1)OCCCO2 (stereo not drawn) [PCM-0102512] |  |  |  | 0 | 0.88 | 0 | 0 |  |  | 88% |  |  |  |  |  | 3.8% | 19.7% | 8.3% | 
COc1ccc(C2CCCCCN2C(=O)CCl)cc1 (stereo not drawn) [PCM-0102558] | 233 M⁻¹ s⁻¹ |  |  | 0 | 1 | 0 | 0 |  |  |  |  |  |  |  |  | 15.3% | 11% | 27.4% | 
Cl.O=C(CCl)N1CCN(Cc2ccc(Cl)cc2)CC1 [PCM-0102818] |  |  |  | 0 | 0 | 0 | 0.17 |  |  |  | 0.14 |  |  | 63% |  | 7.8% | 31.6% | 8.2% | 
COc1ccc(C2CCCN2C(=O)CCl)cc1 (stereo not drawn) [PCM-0102938] |  |  |  | 0 | 1 | 0 | 0 |  |  | 100% | 0 |  |  |  |  | 6.4% | 24.3% | 12% | 
O=C(CCl)NC1(c2ccc3c(c2)OCCO3)CCCC1 [PCM-0102951] |  |  |  | 0 | 1 | 0 | 0 |  |  |  |  |  |  |  | cocrystal structures of compounds PCM-0102951, PCM-0102558, and PCM-0102716 bound to NUDT7 | 56.4% | 69.3% | 72.7% | 
Cc1cc(NC(=O)CCl)n(-c2ccccc2F)n1 [PCM-0103066] |  |  |  | 0 | 0 | 0 | 0.44 |  |  |  | 0 |  |  |  |  | 36% | 65.3% | 64% | 
COc1cccc2sc(NC(=O)CCl)nc12.Cl [PCM-0103067] |  |  |  | 0 | 1 | 0 | 0.16 |  |  |  | 1 |  |  |  |  | 47.6% | 48.9% | 32.2% | 

More lines, main results first:

kinact/KI [1] | KI (inactivation) [2] | IC50 [3] | BSA [4] | NUDT7 [5] | PCAF [6] | OTUB2 [7] | % labeling at 100 μM [13] | % labeling at 5 μM [14] | % labeling at 200 μM [15] | NNMT [16] | % labeling at 200 μM [17] | % labeling at 200 μM [18] | % labeling at 200 μM [19] | Compound | X-ray cocrystal structure [8] | viability at 48 h, 10 µM [9] | viability at 48 h, 10 µM [10] | viability at 48 h, 10 µM [11] | X-ray crystal structure, soak [12]
 |  |  | 0 | 0 | 0 | 0 |  |  |  | 0 |  |  |  | O=C(CCl)Nc1cccc(C(=O)N2CCSCC2)c1 [PCM-0103072] |  | 7.8% | 55.2% | 34.5% | 
 |  |  | 0.21 | 0 | 0 | 0.55 |  |  |  | 0 |  |  |  | Cc1ccsc1CNC(=O)CCl [PCM-0103075] |  | 83.8% | 76.7% | 96.1% | 
 |  |  | 0 | 0 | 0 | 0.11 |  |  |  | 0.16 |  |  |  | O=C(CCl)Nc1nc(C2CC2)no1 [PCM-0103076] |  | 97.9% | 102% | 104% | 
 |  |  | 0 | 0 | 0 | 0.3 |  |  |  | 0 |  |  |  | O=C(CCl)Nc1ccon1 [PCM-0103077] |  | 64.8% | 61.1% | 77.3% | 
 |  |  | 0 | 0 | 0 | 0 |  |  |  | 0.2 |  |  |  | C=CC(=O)NCc1cc(F)c(C(F)(F)F)cc1F [PCM-0103078] |  | 88.4% | 96.9% | 101% | 
 |  |  | 0 | 0 | 0 | 0 |  |  |  | 0 |  |  |  | CN(Cc1cc(Br)cs1)C(=O)CCl [PCM-0103081] |  | 11.9% | 45.5% | 5.1% | 
